# Data reported in patent US9435795B2, “Enhanced deposition of chromogens utilizing pyrimidine analogs” (Ventana Medical Systems, Inc., priority 2010, dated 2016).
# Values joined by “and” are separate entries in the source; they are usually repeats but may differ in a detail not shown here. Identical values can stand only once. Like-named read-outs stand apart in the source and are kept apart here.
# How the values were obtained:
# [1] = target: T1, ultraView HRP multimer (Armoracia rusticana, UniProt P00433); test: Michaelis-Menten kinetics of HRP-oxidized DAB with enhanced DAB chromogen mixtures; type: biochemical, horseradish
# T1 construct: purchased Ventana Medical Systems (ultraView kit component)
# T1 sequence (P00433 31-338 limits assumed): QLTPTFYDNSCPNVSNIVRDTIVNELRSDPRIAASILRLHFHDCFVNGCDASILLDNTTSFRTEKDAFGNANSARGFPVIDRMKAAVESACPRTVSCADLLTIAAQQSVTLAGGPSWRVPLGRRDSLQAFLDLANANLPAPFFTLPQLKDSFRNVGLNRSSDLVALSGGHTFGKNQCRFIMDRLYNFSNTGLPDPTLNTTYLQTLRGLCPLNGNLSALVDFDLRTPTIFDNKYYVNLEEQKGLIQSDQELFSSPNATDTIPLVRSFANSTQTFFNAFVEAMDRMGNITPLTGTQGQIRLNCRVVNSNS
# Method: To further study the synergistic effect in the increased apparent Vmax for HRP-oxidized DAB, Michaelis-Menten kinetics were calculated for the best enhanced DAB chromogen mixtures in Table 3. […] The definition of Vmax=kcat·[E]total when the enzyme substrate concentration was at saturation levels. When the concentration of enzyme was kept constant, the apparent Vmax is proportional to kcat (the apparent turnover for HRP or the first order rate constant).
# [2] = target: T2, horseradish peroxidase (HRP) (Armoracia rusticana, UniProt P00433); test: Plate assay: kinetic screening of enhancers of HRP-mediated DAB oxidation (ultraView Detection Kit, OD 455 nm); type: biochemical; details: for Percent increase of apparent Vmax of HRP: relative to uView Vmax without enhancement
# T2 construct: purchased VMSI (Ventana Medical Systems, Inc.) 760-500: 253-4290, 253-4292 and 253-4293
# Method: The additives were directly added to a well containing the necessary reagents from the ultraView™ Detection Kit (VMSI 760-500: 253-4290, 253-4292 and 253-4293) in 1× Reaction Buffer (VMSI 950-300) and 0.1% fish gelatin. Fish gelatin was used to help disperse the oxidized DAB and inhibit its precipitation from solution. The ultraView™ Detection Kit was diluted to measure the formation of oxidized DAB by UV-VIS at 455 nm. Additives were tested at set concentrations to determine enhancement in the DAB oxidation reaction. The data were graphed, and the apparent maximum velocity (Vmax) was calculated at each additive concentration level.
# [3] = Solubility of additive in reaction buffer / aqueous buffers; type: physicochemical; details: for solubility: reaction buffer, aqueous buffer, read-out: Solubility of additive in reaction buffer at room temperature
# [4] = system: bcl2 in tonsil tissue; test: TSA-IHC tissue staining of bcl2 in tonsil tissue (TA-HQ deposition); details: 10 mM during tyramide deposition; 8 minute primary Ab incubation
# Method: Enhanced DAB deposition was evaluated on a TSA-IHC tissue staining of bcl2 in tonsil tissue. […] Tyramide deposition was performed with and without 10 mM 2-hydroxypyrimidine. […] The percent of cells stained with DAB increased in areas with low bcl2 antigen expression. Formalin fixed paraffin embedded tonsil tissue was mounted on Superfrost slides, deparaffinized and antigen retrieved using CC1 bulk reagent (Ventana® p/n 950-124). […] Slides were counterstained using Hematoxylin II (Ventana® p/n 790-2208) and Bluing Reagent (Ventana® p/n760-2037). The slides were dehydrated using gradient alcohols, cover slipped and viewed using a bright field microscope (FIGS. 23-26).
# [5] = system: bcl2 on tonsil tissue; test: IHC staining of bcl2 on tonsil tissue with enhanced DAB chromogen solutions, pathology scoring; details: additive in DAB chromogen solution
# Method: IHC staining was performed for bcl2 on tonsil tissue using enhanced DAB chromogen solutions to further examine enhancer synergistic effects on DAB deposition. Reader 1 performed all pathology evaluations during the same period of time.
# Formalin fixed paraffin embedded tonsil tissue was mounted on Superfrost slides, deparaffinized and antigen retrieved using CC1 bulk reagent (Ventana® p/n 950-124). Following retrieval, one drop (100 μL) of UV Inhibitor (a component of the ultraView™ DAB kit) was dispensed onto a slide and incubated for 8 minutes. Following the incubation of the Inhibitor, 1 drop of the mouse anti-bcl2 (clone 124; Ventana® p/n 790-4464) was dispensed onto the slide and incubated for 16 minutes. Following 2 rinses with reaction buffer, the bcl2 antibody was detected using 1 drop of the ultraView™ universal HRP conjugate (a component of the ultraView™ DAB kit) and incubated on the slide for 8 minutes. One drop of DAB (5.5 mM DAB; 0.05% Brij® 35; plus any combination of enhancers investigated in table 3) and H2O2 were each added to the slides and incubated for 8 minutes. ultraView™ DAB was used as the reference. After rinsing the slides in reaction buffer, 100 μL of copper (component of ultraView™ DAB kit) was applied to slide for 4 minutes. Slides were counterstained using Hematoxylin II (Ventana® p/n 790-2208) and Bluing Reagent (Ventana p/n760-2037). […]
# [6] = target: T2, horseradish peroxidase (HRP); test: Plate assay: enhancers added sequentially to ultraView Detection Kit (synergistic/antagonistic effects); type: biochemical; details: for Effect on apparent velocity of HRP when added to a preceding assay mixture of Table 2: NMO added to mixture 4, 50 mM L-histidine or 10 mM pyrimidine added to mixture 5
# Method: The same concentration of reagents from the ultraView™ Detection Kit (VMSI 760-500: 253-4290, 253-4292 and 253-4293) were used in 1× Reaction Buffer™ containing 0.1% fish gelatin for each trial. In each trial, the enhancers were added together one at a time.
# [7] = Compatibility and stability of reformulated DAB Chromogen solution with additive; type: physicochemical
# [8] = enhancer 10 mM in 50 mM imidazole, 10 mM calcium chloride, 10 mM boric acid
# [9] = enhancer 10 mM, no enhancer 18.50
# [10] = enhancer 50 mM, no enhancer 18.50, (sat) = reaction rate saturated by start of UV-VIS analysis
# [11] = enhancer 100 mM, no enhancer 18.50, (sat) = reaction rate saturated by start of UV-VIS analysis
"Vmax (apparent, HRP-oxidized DAB) [2, 9] [mOD/min]","Vmax (apparent, HRP-oxidized DAB) [2, 10]","Vmax (apparent, HRP-oxidized DAB) [2, 11]",Enhancement of apparent velocity of HRP-mediated DAB oxidation (in words) [2],SMILES,also measured
47.67,18.19 mOD/min,15.98 mOD/min,,Oc1ccccn1 [2-Hydroxypyridine],"Vmax [1, 8]: 383 mOD/min; Percent increase of apparent Vmax of HRP ([2]; enhancer 10 mM): 157%"
144.00,156.00 mOD/min,148.00 mOD/min,,Oc1ncccn1 [2-Hydroxypyrimidine],"Solubility in aqueous buffers (in words) [3]: do not have solubility or volatility problems; Vmax [1, 8]: 320 mOD/min; Tyramide deposition in TSA-IHC staining (in words) [4]: increased the tyramide deposition"
32.80,,,,"CC(=O)Nc1ccc(B(O)O)cc1 [4-AcHNPhB(OH)2, 4-acetylamidophenyl boronic acid]","Vmax (apparent, HRP-oxidized DAB) ([2]; enhancer 5 mM, no enhancer 18.50): 21.20 mOD/min; Percent increase of apparent Vmax of HRP ([2]; enhancer 10 mM): 77%; Vmax (apparent, HRP-oxidized DAB) ([2]; enhancer 20 mM, no enhancer 18.50): 32.00 mOD/min"
,,,no enhancement,CN(C)c1ccncc1 [4-dimethylaminopyridine],
36.00,66.00 mOD/min,,increased the apparent velocity of HRP,Nc1cc[nH]c(=O)n1 [Cytosine],Solubility in aqueous buffers (in words) [3]: solubility problems in aqueous buffers; solubility ([3]; additive 50 mM): 10 to 50 mM; solubility ([3]; additive 100 mM): 10 to 100 mM
28.80,,,,c1c[nH]cn1 [Imidazole],"DAB staining on tissue, pathological review (in words) [5]: significantly increased the DAB staining intensity; Vmax (apparent, HRP-oxidized DAB), enhancers added sequentially ([6]; no enhancement 18.50): 34.00 mOD/min; Precipitation of DAB from reformulated DAB Chromogen solution ([7]; higher concentrations of imidazole, 50 mM L-histidine): causing DAB to precipitate; Vmax ([1]; 10 mM buffer salt with 10 mM pyrimidine, no enhancer 228): 330 mOD/min; Vmax ([1]; 50 mM buffer salt with 10 mM 2-hydroxypyrimidine (FIG. 19: also 10 mM boric acid, 10 mM calcium chloride)): 320 mOD/min; Percent increase of apparent Vmax of HRP ([2]; enhancer 10 mM): 56%"
104.00,124.00 mOD/min,36.80 (sat) mOD/min,,c1cncnc1 [Pyrimidine],"Effect on apparent velocity of HRP when added to a preceding assay mixture of Table 2 [6]: increased the apparent velocity of HRP; Vmax ([1]; enhancer 50 mM in 50 mM imidazole, 10 mM calcium chloride, 10 mM boric acid): 326 mOD/min; Percent increase of apparent Vmax of HRP ([2]; enhancer 10 mM): 462%; Percent increase of apparent Vmax of HRP ([2]; enhancer 50 mM): 570%"
66.40,27.00 (sat) mOD/min,27.05 (sat) mOD/min,,c1cscn1 [Thiazole],
82.00,86.00 mOD/min,74.00 mOD/min,increased the apparent velocity of HRP,Cc1c[nH]c(=O)[nH]c1=O [Thymine],
,,,no enhancement,CN(C)c1ccc2nc3ccc(=[N+](C)C)cc-3sc2c1 [methylene blue],

# The remaining lines, values behind:
SMILES,"Vmax (apparent, HRP-oxidized DAB) [2, 9] [mOD/min]","Vmax (apparent, HRP-oxidized DAB) [2, 10]","Vmax (apparent, HRP-oxidized DAB) [2, 11]",Enhancement of apparent velocity of HRP-mediated DAB oxidation (in words) [2],also measured
O=C1CC(=O)NC(=S)N1 [2-Thiobarbituric Acid],54.00,56.00 mOD/min,76.00 mOD/min,,
c1ccc2[nH]cnc2c1 [Benzimidazole],,,,no enhancement,
OB(O)O [Boric Acid],67.47,,,,Percent increase of apparent Vmax of HRP ([2]; enhancer 10 mM): 265%; Percent increase of apparent Vmax of HRP ([2]; enhancer 50 mM): 592%
[Ca+2].[Cl-].[Cl-] [Calcium Chloride],,,,,"Vmax (apparent, HRP-oxidized DAB) [2]: 43.50 mOD/min and 52.50 mOD/min and 57.00 mOD/min"
N[C@@H](Cc1c[nH]c2ccccc12)C(=O)O [L-Tryptophan],30.00,52.00 mOD/min,64.00 mOD/min,,
"C[N+]1([O-])CCOCC1 [NMO, 4-methyl-morpholine N-oxide]",,,,,"Effect on apparent velocity of HRP when added to a preceding assay mixture of Table 2 [6]: antagonistic effect; Vmax (apparent, HRP-oxidized DAB) ([2]; enhancer 0.13% (10.7 mM)): 33.60 mOD/min; Vmax (apparent, HRP-oxidized DAB) ([2]; enhancer 0.25% (21.3 mM)): 43.60 mOD/min; Vmax (apparent, HRP-oxidized DAB) ([2]; enhancer 0.50% (42.7 mM)): 51.60 mOD/min"
c1cocn1 [Oxazole],24.00,40.00 mOD/min,18.00 (sat) mOD/min,,
[O-][n+]1cccnc1 [Pyrimidine-N-oxide],104.00,104.00 mOD/min,36.00 mOD/min,,"DAB staining on tissue, pathological review (in words) [5]: best DAB signal to background noise ratio for the two enhancers; Solubility in aqueous buffers (in words) [3]: do not have solubility or volatility problems; Functionality over time of DAB reformulated with additive [7]: lost functionality and stopped staining with time; Vmax [1, 8]: 374 mOD/min"
"CC1(C)CCCC(C)(C)N1[O] [TEMPO, 2,2,6,6-tetramethylpiperidine-1-oxyl]",,,,,"Vmax (apparent, HRP-oxidized DAB) ([2]; enhancer 0.13% (8 mM)): 18.00 mOD/min; Vmax (apparent, HRP-oxidized DAB) ([2]; enhancer 0.25% (16 mM)): 24.80 mOD/min; Vmax (apparent, HRP-oxidized DAB) ([2]; enhancer 0.50% (32 mM)): 21.20 mOD/min"
O=c1cc[nH]c(=O)[nH]1 [Uracil],52.00,72.00 mOD/min,,increased the apparent velocity of HRP,Solubility in aqueous buffers (in words) [3]: solubility problems in aqueous buffers; solubility ([3]; additive 50 mM): 10 to 50 mM; solubility ([3]; additive 100 mM): 10 to 100 mM
c1ccc2c(c1)Nc1ccccc1S2 [phenothiazine],,,,no enhancement,
